Activity calls are given as the source filed them. The calls are words filed in the database; no cut-off is given here.
Key:
[1] = molecular target: Serine/threonine-protein kinase SIK2 (Homo sapiens) (UniProt Q9H0K1); conditions: Compound concentration 1000.0 nM
[2] = molecular target: Tyrosine-protein kinase Srms (Homo sapiens) (UniProt Q9H3Y6); conditions: Compound concentration 1000.0 nM
[3] = molecular target: RAF proto-oncogene serine/threonine-protein kinase (Homo sapiens) (UniProt P04049); conditions: Compound concentration 1000.0 nM
[4] = molecular target: Tyrosine-protein kinase JAK1 (Homo sapiens) (UniProt P23458); conditions: Compound concentration 1000.0 nM
[5] = molecular target: Maternal embryonic leucine zipper kinase (Homo sapiens) (UniProt Q14680); conditions: Compound concentration 1000.0 nM
[6] = molecular target: Ephrin type-B receptor 4 (Homo sapiens) (UniProt P54760); conditions: Compound concentration 1000.0 nM
[7] = molecular target: Insulin-like growth factor 1 receptor (Homo sapiens) (UniProt P08069); conditions: Compound concentration 1000.0 nM
[8] = molecular target: Serine/threonine-protein kinase tousled-like 2 (Homo sapiens) (UniProt Q86UE8); conditions: Compound concentration 1000.0 nM
[9] = molecular target: Transient receptor potential cation channel subfamily M member 6 (Homo sapiens) (UniProt Q9BX84); conditions: Compound concentration 1000.0 nM
[10] = molecular target: Serine/threonine-protein kinase 35 (Homo sapiens) (UniProt Q8TDR2); conditions: Compound concentration 1000.0 nM
[11] = molecular target: Motilin receptor (Homo sapiens) (UniProt O43193); assay: motilin (h Eurofins-Cerep binding assay; design: ligand concentration 0.05 nM; conditions: filed as agonist, Compound concentration 10.0 uM
[12] = molecular target: Ribosomal protein S6 kinase beta-1 (Homo sapiens) (UniProt P23443); conditions: Compound concentration 1000.0 nM
[13] = molecular target: Endothelin-1 receptor (Homo sapiens) (UniProt P25101); assay: ETA (h) Eurofins-Cerep binding assay; design: ligand concentration 0.03 nM; conditions: filed as agonist, Compound concentration 10.0 uM
[14] = molecular target: TGF-beta receptor type-2 (Homo sapiens) (UniProt P37173); conditions: Compound concentration 1000.0 nM
[15] = molecular target: Beta-adrenergic receptor kinase 1 (Homo sapiens) (UniProt P25098); conditions: Compound concentration 1000.0 nM
[16] = molecular target: Non-receptor tyrosine-protein kinase TYK2 (Homo sapiens) (UniProt P29597); conditions: Compound concentration 1000.0 nM
[17] = test system: Tyrosine-protein kinase ABL1 (Homo sapiens), P00519 [M351T]; conditions: Compound concentration 1000.0 nM
[18] = molecular target: Mu-type opioid receptor (Homo sapiens) (UniProt P35372); assay: mu (MOP) (h) Eurofins-Cerep binding assay; design: ligand concentration 0.5 nM; conditions: filed as agonist, Compound concentration 10.0 uM
[19] = molecular target: Cyclin-dependent kinase 13 (Homo sapiens) (UniProt Q14004); conditions: Compound concentration 1000.0 nM
[20] = test system: Tyrosine-protein kinase ABL1 (Homo sapiens), P00519 [T315I]; conditions: Compound concentration 1000.0 nM
[21] = molecular target: Glycogen synthase kinase-3 alpha (Homo sapiens) (UniProt P49840); conditions: Compound concentration 1000.0 nM
[22] = molecular target: Cystic fibrosis transmembrane conductance regulator (Homo sapiens, UniProt P13569); assay: HBE-TECC (Human Bronchial Epithelial- Trans-Epithelial Current Clamp) assay
[23] = molecular target: Tyrosine-protein kinase BTK (Homo sapiens) (UniProt Q06187); conditions: Compound concentration 1000.0 nM
[24] = molecular target: P2X receptor (Rattus norvegicus) (UniProt P51579+P49653+P51578+Q64663+P47824+P51577+P49654); assay: P2X Eurofins-Cerep binding assay; type: protein assay; design: ligand concentration 3 nM; conditions: filed as agonist, Compound concentration 10.0 uM
[25] = molecular target: Phosphatidylinositol 3-kinase catalytic subunit type 3 (Homo sapiens) (UniProt Q8NEB9); conditions: Compound concentration 1000.0 nM
[26] = molecular target: Serine/threonine-protein kinase 38 (Homo sapiens) (UniProt Q15208); conditions: Compound concentration 1000.0 nM
[27] = molecular target: Bone morphogenetic protein receptor type-1A (Homo sapiens) (UniProt P36894); conditions: Compound concentration 1000.0 nM
[28] = molecular target: Mu-type opioid receptor (Homo sapiens) (UniProt P35372); conditions: Compound concentration 10.0 uM
[29] = molecular target: Activin receptor type-2A (Homo sapiens) (UniProt P27037); conditions: Compound concentration 1000.0 nM
[30] = molecular target: Mitogen-activated protein kinase kinase kinase 4 (Homo sapiens) (UniProt Q9Y6R4); conditions: Compound concentration 1000.0 nM
[31] = molecular target: Serine/threonine-protein kinase N1 (Homo sapiens) (UniProt Q16512); conditions: Compound concentration 1000.0 nM
[32] = molecular target: Sigma intracellular receptor 2 (Homo sapiens, UniProt Q5BJF2); assay: GPCRScan assay: inhibition of Sigma 2; design: radioligand conc. used [nm] 5.0, parental cells HEKT
[33] = molecular target: Activin receptor type-1 (Homo sapiens) (UniProt Q04771); conditions: Compound concentration 1000.0 nM
[34] = molecular target: Receptor tyrosine-protein kinase erbB-4 (Homo sapiens) (UniProt Q15303); conditions: Compound concentration 1000.0 nM
[35] = test system: Mast/stem cell growth factor receptor Kit (Homo sapiens), P10721 [V559D,T670I]; conditions: Compound concentration 1000.0 nM
[36] = molecular target: Aurora kinase A (Homo sapiens) (UniProt O14965); conditions: Compound concentration 1000.0 nM
[37] = molecular target: Serine/threonine-protein kinase Chk1 (Homo sapiens) (UniProt O14757); conditions: Compound concentration 1000.0 nM
[38] = molecular target: T1, 5-hydroxytryptamine receptor 2C (Homo sapiens) (UniProt P28335); assay: 5-HT2C (h) Eurofins-Cerep binding assay; design: ligand concentration 1 nM; conditions: filed as antagonist, Compound concentration 10.0 uM
T1 sequence (whole entry): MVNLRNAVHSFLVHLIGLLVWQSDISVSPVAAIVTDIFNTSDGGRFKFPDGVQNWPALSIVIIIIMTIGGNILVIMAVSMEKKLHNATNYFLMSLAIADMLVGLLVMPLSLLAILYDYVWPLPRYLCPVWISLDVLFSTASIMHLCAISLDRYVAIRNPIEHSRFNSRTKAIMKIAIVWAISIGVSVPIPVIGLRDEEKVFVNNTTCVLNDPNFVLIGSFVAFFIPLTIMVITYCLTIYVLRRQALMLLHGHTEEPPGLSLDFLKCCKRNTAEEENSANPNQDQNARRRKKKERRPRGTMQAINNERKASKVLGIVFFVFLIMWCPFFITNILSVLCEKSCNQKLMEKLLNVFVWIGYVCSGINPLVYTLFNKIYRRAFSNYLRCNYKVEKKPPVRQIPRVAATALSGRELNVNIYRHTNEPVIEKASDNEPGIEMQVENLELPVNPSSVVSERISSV

[39] = molecular target: Protein-tyrosine kinase 2-beta (Homo sapiens) (UniProt Q14289); conditions: Compound concentration 1000.0 nM

Sequence of Mu-type opioid receptor (Homo sapiens) (P35372 whole entry): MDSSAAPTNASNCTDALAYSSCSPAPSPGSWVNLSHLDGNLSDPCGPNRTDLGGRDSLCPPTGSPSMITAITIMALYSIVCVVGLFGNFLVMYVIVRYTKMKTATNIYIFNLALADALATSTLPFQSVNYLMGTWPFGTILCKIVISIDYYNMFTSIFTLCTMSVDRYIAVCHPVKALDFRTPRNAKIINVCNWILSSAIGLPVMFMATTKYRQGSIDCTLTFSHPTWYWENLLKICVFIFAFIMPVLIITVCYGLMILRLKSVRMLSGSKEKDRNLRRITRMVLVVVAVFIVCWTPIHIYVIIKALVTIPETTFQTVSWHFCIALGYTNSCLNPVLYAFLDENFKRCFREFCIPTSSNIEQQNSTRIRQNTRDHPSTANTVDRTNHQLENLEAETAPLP
Sequence of Non-receptor tyrosine-protein kinase TYK2 (Homo sapiens) (P29597 whole entry): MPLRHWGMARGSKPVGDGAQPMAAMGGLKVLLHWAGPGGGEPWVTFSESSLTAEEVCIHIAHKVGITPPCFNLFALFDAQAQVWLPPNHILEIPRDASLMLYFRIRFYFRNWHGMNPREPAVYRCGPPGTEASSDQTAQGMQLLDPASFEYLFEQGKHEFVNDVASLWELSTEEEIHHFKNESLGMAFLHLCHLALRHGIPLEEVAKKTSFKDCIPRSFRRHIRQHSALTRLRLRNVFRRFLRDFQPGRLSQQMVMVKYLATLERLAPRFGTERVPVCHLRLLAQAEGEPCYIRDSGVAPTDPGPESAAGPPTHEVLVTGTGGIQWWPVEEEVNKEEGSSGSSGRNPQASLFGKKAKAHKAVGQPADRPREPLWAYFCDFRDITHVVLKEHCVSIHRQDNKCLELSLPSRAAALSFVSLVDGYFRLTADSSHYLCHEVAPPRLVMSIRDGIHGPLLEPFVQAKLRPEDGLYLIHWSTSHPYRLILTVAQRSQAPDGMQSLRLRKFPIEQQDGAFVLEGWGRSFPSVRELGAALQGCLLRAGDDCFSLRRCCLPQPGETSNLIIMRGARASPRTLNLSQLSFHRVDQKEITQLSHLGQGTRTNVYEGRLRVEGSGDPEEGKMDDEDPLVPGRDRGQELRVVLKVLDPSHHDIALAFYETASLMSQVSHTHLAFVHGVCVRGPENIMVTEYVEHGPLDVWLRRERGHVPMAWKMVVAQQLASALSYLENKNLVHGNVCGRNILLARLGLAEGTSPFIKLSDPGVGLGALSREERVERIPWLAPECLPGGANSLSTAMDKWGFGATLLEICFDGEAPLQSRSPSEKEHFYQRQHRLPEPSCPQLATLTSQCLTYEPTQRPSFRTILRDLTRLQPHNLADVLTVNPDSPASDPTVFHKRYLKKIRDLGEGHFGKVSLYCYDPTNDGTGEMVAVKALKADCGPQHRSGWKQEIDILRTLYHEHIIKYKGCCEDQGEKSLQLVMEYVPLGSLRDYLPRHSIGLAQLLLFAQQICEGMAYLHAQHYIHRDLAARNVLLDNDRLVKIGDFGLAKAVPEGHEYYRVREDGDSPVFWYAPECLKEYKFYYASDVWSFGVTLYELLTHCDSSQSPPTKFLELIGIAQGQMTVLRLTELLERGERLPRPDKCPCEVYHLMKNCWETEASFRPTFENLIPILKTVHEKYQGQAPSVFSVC
Sequence of Activin receptor type-2A (Homo sapiens) (P27037 whole entry): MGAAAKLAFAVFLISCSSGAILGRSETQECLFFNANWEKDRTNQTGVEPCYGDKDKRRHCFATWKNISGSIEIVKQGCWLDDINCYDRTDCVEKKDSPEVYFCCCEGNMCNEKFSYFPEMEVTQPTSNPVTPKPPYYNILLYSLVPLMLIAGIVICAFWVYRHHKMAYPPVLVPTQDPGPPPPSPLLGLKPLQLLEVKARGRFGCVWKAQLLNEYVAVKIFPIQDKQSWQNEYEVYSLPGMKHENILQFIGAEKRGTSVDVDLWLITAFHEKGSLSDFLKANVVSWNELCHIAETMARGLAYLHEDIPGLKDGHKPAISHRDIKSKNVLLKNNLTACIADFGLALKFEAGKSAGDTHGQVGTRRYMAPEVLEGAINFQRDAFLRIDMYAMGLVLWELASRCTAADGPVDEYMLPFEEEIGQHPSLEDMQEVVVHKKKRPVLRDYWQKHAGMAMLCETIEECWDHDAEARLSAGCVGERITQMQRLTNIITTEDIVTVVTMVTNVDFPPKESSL
Sequence of Glycogen synthase kinase-3 alpha (Homo sapiens) (P49840 2-483 limits assumed): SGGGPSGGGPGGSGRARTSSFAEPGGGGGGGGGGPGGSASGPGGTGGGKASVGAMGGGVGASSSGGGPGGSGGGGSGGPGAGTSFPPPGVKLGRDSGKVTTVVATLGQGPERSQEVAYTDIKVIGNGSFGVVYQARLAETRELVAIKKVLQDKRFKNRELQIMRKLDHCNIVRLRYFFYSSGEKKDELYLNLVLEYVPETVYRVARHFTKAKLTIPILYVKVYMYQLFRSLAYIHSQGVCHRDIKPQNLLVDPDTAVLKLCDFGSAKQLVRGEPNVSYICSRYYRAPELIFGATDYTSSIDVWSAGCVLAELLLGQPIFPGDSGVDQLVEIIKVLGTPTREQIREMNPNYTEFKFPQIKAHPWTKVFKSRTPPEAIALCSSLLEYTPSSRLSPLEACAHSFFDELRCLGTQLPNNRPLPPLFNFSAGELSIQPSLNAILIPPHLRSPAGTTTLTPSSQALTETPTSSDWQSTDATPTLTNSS
Sequence of Aurora kinase A (Homo sapiens) (O14965 whole entry): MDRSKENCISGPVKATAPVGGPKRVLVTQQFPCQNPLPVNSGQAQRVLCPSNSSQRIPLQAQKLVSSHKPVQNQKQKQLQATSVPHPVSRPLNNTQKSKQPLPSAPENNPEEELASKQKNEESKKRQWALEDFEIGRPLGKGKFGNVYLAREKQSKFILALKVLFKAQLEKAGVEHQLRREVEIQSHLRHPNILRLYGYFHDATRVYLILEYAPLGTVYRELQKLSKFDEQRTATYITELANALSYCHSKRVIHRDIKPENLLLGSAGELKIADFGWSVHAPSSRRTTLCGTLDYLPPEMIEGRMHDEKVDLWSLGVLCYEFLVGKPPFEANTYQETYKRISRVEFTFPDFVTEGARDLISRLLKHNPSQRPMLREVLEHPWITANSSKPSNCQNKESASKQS
Sequence of Cystic fibrosis transmembrane conductance regulator (P13569 whole entry): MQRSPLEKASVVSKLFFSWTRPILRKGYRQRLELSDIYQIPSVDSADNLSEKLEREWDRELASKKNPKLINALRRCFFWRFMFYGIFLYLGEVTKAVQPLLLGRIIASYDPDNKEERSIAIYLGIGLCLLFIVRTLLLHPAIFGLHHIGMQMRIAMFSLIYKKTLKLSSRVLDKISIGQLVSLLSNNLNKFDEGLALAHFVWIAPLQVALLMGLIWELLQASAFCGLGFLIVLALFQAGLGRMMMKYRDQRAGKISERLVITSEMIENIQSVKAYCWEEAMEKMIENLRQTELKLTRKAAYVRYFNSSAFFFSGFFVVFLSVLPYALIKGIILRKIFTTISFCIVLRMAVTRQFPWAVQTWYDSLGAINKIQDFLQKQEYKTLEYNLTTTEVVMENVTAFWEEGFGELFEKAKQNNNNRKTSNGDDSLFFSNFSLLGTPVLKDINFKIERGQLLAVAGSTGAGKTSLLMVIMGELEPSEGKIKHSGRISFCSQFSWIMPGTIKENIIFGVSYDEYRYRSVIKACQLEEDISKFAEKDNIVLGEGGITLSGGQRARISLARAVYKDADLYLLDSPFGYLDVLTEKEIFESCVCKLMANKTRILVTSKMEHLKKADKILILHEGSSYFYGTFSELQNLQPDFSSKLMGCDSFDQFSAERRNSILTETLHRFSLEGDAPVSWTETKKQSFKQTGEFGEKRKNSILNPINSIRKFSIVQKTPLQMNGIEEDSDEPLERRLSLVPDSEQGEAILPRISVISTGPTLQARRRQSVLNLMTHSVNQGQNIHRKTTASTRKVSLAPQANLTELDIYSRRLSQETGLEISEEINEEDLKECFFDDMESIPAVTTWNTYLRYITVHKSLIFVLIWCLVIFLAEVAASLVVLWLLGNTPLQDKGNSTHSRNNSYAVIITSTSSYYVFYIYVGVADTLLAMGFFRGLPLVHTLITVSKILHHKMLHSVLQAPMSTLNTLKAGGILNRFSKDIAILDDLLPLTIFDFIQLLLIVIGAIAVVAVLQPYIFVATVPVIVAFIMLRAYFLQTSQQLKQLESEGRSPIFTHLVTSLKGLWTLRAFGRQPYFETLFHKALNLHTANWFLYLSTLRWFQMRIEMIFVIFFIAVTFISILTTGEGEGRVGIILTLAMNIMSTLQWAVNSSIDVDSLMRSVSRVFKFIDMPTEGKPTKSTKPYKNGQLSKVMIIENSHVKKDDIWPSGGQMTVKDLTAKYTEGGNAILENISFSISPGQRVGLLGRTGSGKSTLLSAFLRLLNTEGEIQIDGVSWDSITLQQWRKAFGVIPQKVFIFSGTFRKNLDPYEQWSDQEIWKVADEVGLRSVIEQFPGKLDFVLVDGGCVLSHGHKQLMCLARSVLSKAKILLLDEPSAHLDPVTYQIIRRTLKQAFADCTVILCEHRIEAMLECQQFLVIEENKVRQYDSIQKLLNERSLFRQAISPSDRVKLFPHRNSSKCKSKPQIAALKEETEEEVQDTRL
Sequence of Activin receptor type-1 (Homo sapiens) (Q04771 whole entry): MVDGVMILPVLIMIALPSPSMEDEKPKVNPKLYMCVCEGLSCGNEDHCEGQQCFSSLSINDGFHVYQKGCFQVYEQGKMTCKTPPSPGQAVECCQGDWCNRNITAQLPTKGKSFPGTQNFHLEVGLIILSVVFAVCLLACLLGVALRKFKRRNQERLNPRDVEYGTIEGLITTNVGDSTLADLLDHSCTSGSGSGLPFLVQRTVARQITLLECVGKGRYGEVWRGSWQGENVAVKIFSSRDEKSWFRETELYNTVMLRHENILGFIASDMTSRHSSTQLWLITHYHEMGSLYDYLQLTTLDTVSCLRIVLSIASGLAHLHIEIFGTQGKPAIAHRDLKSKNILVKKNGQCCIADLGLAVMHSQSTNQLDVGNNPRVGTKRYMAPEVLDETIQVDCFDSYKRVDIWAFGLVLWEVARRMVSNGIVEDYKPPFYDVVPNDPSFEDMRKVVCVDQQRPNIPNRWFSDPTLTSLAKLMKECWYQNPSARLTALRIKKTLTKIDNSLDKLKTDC

SMILES	residual activity [1] [%]	residual activity [2] [%]	residual activity [3] [%]	residual activity [4] [%]	residual activity [5] [%]	residual activity [6] [%]	residual activity [7] [%]	residual activity [8] [%]	residual activity [9] [%]	residual activity [10] [%]	% Inhibition of Control Specific Binding (Mean n=2) [11] [%]	residual activity [12] [%]	% Inhibition of Control Specific Binding (Mean n=2) [13] [%]	residual activity [14] [%]	residual activity [15] [%]	residual activity [16] [%]	residual activity [17] [%]	% Inhibition of Control Specific Binding (Mean n=2) [18] [%]	residual activity [19] [%]	residual activity [20] [%]	other results
COc1ccc2c(c1)O[C@H](c1ccc(OC)c(OC)c1)C[C@@H]2NC(=O)C1(c2ccc3c(c2)OC(F)(F)O3)CC1 [A-1596584]	100	87	100	100	78	88	98	98	84	100	26.4	91	4	100	84	85	88	11.3	100	100	residual activity [21]: 100%; EC50 [22]: > 3 µM (not active); residual activity [23]: 92%; % Inhibition of Control Specific Binding (Mean n=2) [24]: 4.8%; residual activity [25]: 88%; residual activity [26]: 100%; residual activity [27]: 98%; inhibition [28]: 4.18%; residual activity [29]: 97%; residual activity [30]: 98%; residual activity [31]: 100%; Ki [32]: 584 nM; residual activity [33]: 98%; residual activity [34]: 94%; residual activity [35]: 100%; residual activity [36]: 100%; residual activity [37]: 100%; % Inhibition of Control Specific Binding (Mean n=2) [38]: 1.2%; residual activity [39]: 100%
COc1ccc2c(c1)O[C@@H](c1ccc(OC)c(OC)c1)C[C@H]2NC(=O)C1(c2ccc3c(c2)OC(F)(F)O3)CC1 [A-1596586]	95	94	100	100	65	91	90	100	82	98	10.7	81	-6.9	87	100	65	78	9.8	98	82	residual activity [21]: 100%; EC50 [22]: 0.028 µM (active); residual activity [23]: 81%; % Inhibition of Control Specific Binding (Mean n=2) [24]: -21.7%; residual activity [25]: 78%; residual activity [26]: 91%; residual activity [27]: 92%; inhibition [28]: 6.01%; residual activity [29]: 90%; residual activity [30]: 95%; residual activity [31]: 96%; Ki [32]: 1190 nM; residual activity [33]: 100%; residual activity [34]: 90%; residual activity [35]: 99%; residual activity [36]: 92%; residual activity [37]: 100%; % Inhibition of Control Specific Binding (Mean n=2) [38]: 6.4%; residual activity [39]: 100%
